Assay results reported in ChEMBL document CHEMBL1122438, “2-Phenylpyrazolo[1,5-a]pyrimidin-7-ones. A new class of nonsteroidal antiinflammatory drugs devoid of ulcerogenic activity” (J Med Chem, 1983).
Activity calls are given as the source filed them. The rule behind the calls is not given here.

Key:
Mus musculus [1] = experiment: Percent reduction of edema in mice 3h after oral administration of 20 mg/kg in carrageenan model; type: functional
Rattus norvegicus [2] = experiment: Percent reduction of edema in rat on 23rd day after oral administration of 20 mg/kg in antiarthritis assay; i = Inactive; type: functional, organism-based; parameters: dose 20 mg/kg; details: at 20 mg/kg
Rattus norvegicus [3] = experiment: Percent reduction of edema in rat on 23rd day after oral administration of 30 mg/kg in antiarthritis assay; i = Inactive; type: functional, organism-based; parameters: dose 30 mg/kg; details: at 30 mg/kg
Mus musculus [4] = experiment: Percent reduction of edema in mice 3h after oral administration of 30 mg/kg in carrageenan model; type: functional
Mus musculus [5] = experiment: Acute toxicity was evaluated as number of mice (tested=7) died after 72nd hour when 100 mg/kg is administered intraperitoneally; type: organism-based; parameters: dose 100 mg/kg, route intraperitoneal; details: in vivo, ip
Mus musculus [6] = experiment: Acute toxicity was evaluated as number of mice (tested=7) died after 72nd hour when 115 mg/kg is administered intraperitoneally; type: organism-based; parameters: dose 115 mg/kg, route intraperitoneal; details: in vivo, ip
Mus musculus [7] = experiment: Analgesic activity evaluated by measuring % analgesic effect, after oral administration of 60 mg/kg in acetic acid writhing test; type: functional
Mus musculus [8] = experiment: Analgesic activity evaluated by measuring % analgesic effect, after oral administration of 80 mg/kg in acetic acid writhing test; type: functional
Mus musculus [9] = experiment: Acute toxicity was evaluated as number of mice (tested=7) died after 72nd hour when 120 mg/kg is administered intraperitoneally; type: organism-based; parameters: dose 120 mg/kg, route intraperitoneal; details: in vivo, ip
Mus musculus [10] = experiment: Acute toxicity was evaluated as number of mice (tested=7) died after 72nd hour when 130 mg/kg is administered intraperitoneally; type: organism-based; parameters: dose 130 mg/kg, route intraperitoneal; details: in vivo, ip
Mus musculus [11] = experiment: […] toxicity was evaluated (number of mice died after 72nd hour when 150 mg/kg is administered intraperitoneally; type: organism-based; parameters: dose 150 mg/kg, route intraperitoneal; details: in vivo, ip
[12] = Toxic activity is expressed as LD50 values; type: toxicity, organism-based; details: mouse, in vivo
[13] = Therapeutic index was expressed as LD50/ED50 carragreenin model; details: mouse; read-out: TI
Mus musculus [14] = experiment: (§1) Analgesic activity evaluated by measuring % analgesic effect, after oral administration of 120 mg/kg in acetic acid writhing test; type: functional
Mus musculus [15] = species on record: Mus musculus; experiment: (§2) Analgesic activity in acetic acid writhing test, activity is expressed as ED50 values; type: functional
Rattus norvegicus [16] = species on record: Rattus norvegicus; experiment: Antiinflammatory activity in carrageenan model, activity is expressed as ED50 values; type: functional
Rattus norvegicus [17] = experiment: Antiinflammatory activity evaluated by measuring % reduction of edema, 3h after oral administration of 25 mg/kg in carrageenan model; type: functional
Rattus norvegicus [18] = experiment: Antiinflammatory activity evaluated by measuring % reduction of edema, 3h after oral administration of 100 mg/kg in carrageenan model; type: functional
Rattus norvegicus [19] = experiment: Antiinflammatory activity evaluated by measuring % reduction of edema, 3h after oral administration of 10 mg/kg in carrageenan model; type: functional
Rattus norvegicus [20] = experiment: Percent reduction of edema in rat on 23rd day after oral administration of 30 mg/kg in antiarthritis assay; type: functional
Rattus norvegicus [21] = species on record: Rattus norvegicus; experiment: Ulcer index of the compound; type: functional
Mus musculus [22] = experiment: Percent reduction of edema in mice 3h after oral administration of 100 mg/kg in carrageenan model; type: functional
Rattus norvegicus [23] = experiment: Percent reduction of edema in rat on 23rd day after oral administration of 100 mg/kg in antiarthritis assay; type: functional
Mus musculus [24] = experiment: Analgesic activity evaluated by measuring % analgesic effect, after oral administration of 300 mg/kg in acetic acid writhing test; type: functional
Mus musculus [25] = experiment: Analgesic activity evaluated by measuring % analgesic effect, after oral administration of 500 mg/kg in acetic acid writhing test; type: functional
Mus musculus [26] = experiment: Acute toxicity was evaluated as number of mice (tested=7) died after 72nd hour when 170 mg/kg is administered intraperitoneally; type: organism-based; parameters: dose 170 mg/kg, route intraperitoneal; details: in vivo, ip
Mus musculus [27] = experiment: Acute toxicity was evaluated as number of mice (tested=7) died after 72nd hour when 225 mg/kg is administered intraperitoneally; type: organism-based; parameters: dose 225 mg/kg, route intraperitoneal; details: in vivo, ip
Mus musculus [28] = experiment: Acute toxicity was evaluated as number of mice (tested=7) died after 72nd hour when 300 mg/kg is administered intraperitoneally; type: organism-based; parameters: dose 300 mg/kg, route intraperitoneal; details: in vivo, ip
Mus musculus [29] = experiment: Acute toxicity was evaluated as number of mice (tested=7) died after 72nd hour when 350 mg/kg is administered intraperitoneally; type: organism-based; parameters: dose 350 mg/kg, route intraperitoneal; details: in vivo, ip
Rattus norvegicus [30] = species on record: Rattus norvegicus; experiment: as §2; type: functional
Rattus norvegicus [31] = experiment: Antiinflammatory activity evaluated by measuring % reduction of edema, 3h after oral administration of 50 mg/kg in carrageenan model; type: functional
Rattus norvegicus [32] = experiment: Percent reduction of edema in rat on 23rd day after oral administration of 20 mg/kg in antiarthritis assay; type: functional
Rattus norvegicus [33] = species on record: Rattus norvegicus; experiment: Median ulcerogenic dose was determined; type: functional
Rattus norvegicus [34] = experiment: Ulcer index at 100 mg/kg concentration; type: functional
Rattus norvegicus [35] = experiment: Ulcer index at 50 mg/kg concentration; type: functional
Rattus norvegicus [36] = experiment: Ulcer index at 200 mg/kg concentration; type: functional
Rattus norvegicus [37] = experiment: Percent reduction of edema in rat on 23rd day after oral administration of 300 mg/kg in antiarthritis assay; i = Inactive; type: functional, organism-based; parameters: dose 300 mg/kg; details: at 300 mg/kg
Mus musculus [38] = experiment: Percent reduction of edema in mice 3h after oral administration of 300 mg/kg in carrageenan model; type: functional
Mus musculus [39] = experiment: Acute toxicity was evaluated as number of mice died (tested = 7) after 72nd hour when 15 mg/kg is administered intraperitoneally; type: organism-based; parameters: dose 15 mg/kg, route intraperitoneal; details: in vivo, ip
Mus musculus [40] = experiment: Acute toxicity was evaluated as number of mice died (tested = 7) after 72nd hour when 75 mg/kg is administered intraperitoneally; type: organism-based; parameters: dose 75 mg/kg, route intraperitoneal; details: in vivo, ip
Mus musculus [41] = experiment: Acute toxicity was evaluated as number of mice died (tested = 7) after 72nd hour when 8 mg/kg is administered intraperitoneally; type: organism-based; parameters: dose 8 mg/kg, route intraperitoneal; details: in vivo, ip
Rattus norvegicus [42] = experiment: Analgesic activity evaluated by measuring % analgesic effect, after oral administration of 1.0 mg/kg in acetic acid writhing test; type: functional
Rattus norvegicus [43] = experiment: as §1; type: functional
Rattus norvegicus [44] = experiment: Analgesic activity evaluated by measuring % analgesic effect, after oral administration of 3.0 mg/kg in acetic acid writhing test; type: functional
Rattus norvegicus [45] = experiment: Antiinflammatory activity evaluated by measuring % reduction of edema, 3h after oral administration of 5 mg/kg in carrageenan model; type: functional
Rattus norvegicus [46] = experiment: Antiinflammatory activity evaluated by measuring % reduction of edema, 3h after oral administration of 1 mg/kg in carrageenan model; type: functional
Rattus norvegicus [47] = experiment: Percent reduction of edema in rat on 23rd day after oral administration of 3 mg/kg in antiarthritis assay; type: functional
Rattus norvegicus [48] = experiment: Median ulcerogenic dose was determined at 30 mg/kg dose; type: functional
Rattus norvegicus [49] = experiment: Ulcer index at 30 mg/kg concentration; type: functional
Rattus norvegicus [50] = experiment: Ulcer index at 5 mg/kg concentration; type: functional
Mus musculus [51] = experiment: Percent reduction of edema in mice 3h after oral administration of 3 mg/kg in carrageenan model; type: functional
Mus musculus [52] = experiment: Acute toxicity was evaluated as number of mice died (tested = 7) after 72nd hour when 12 mg/kg is administered intraperitoneally; type: organism-based; parameters: dose 12 mg/kg, route intraperitoneal; details: in vivo, ip

## CCOC(Cn1ccc(=O)n2nc(-c3ccccc3)cc12)OCC
Mus musculus [1]
  Reduction: 12.5%
Rattus norvegicus [2]
  Reduction: inactive

## O=c1ccn(CCO)c2cc(-c3ccccc3)nn12
Rattus norvegicus [3]
  Reduction: inactive
Mus musculus [4]
  Reduction: 16.5%

## CC(C)n1ccc(=O)n2nc(-c3ccccc3)cc12
Mus musculus [1]
  Reduction: 3.5%
Rattus norvegicus [2]
  Reduction: inactive

## CCn1ccc(=O)n2nc(-c3ccc(C)cc3)cc12
Rattus norvegicus [3]
  Reduction: inactive
Mus musculus [4]
  Reduction: 35.9%

## Cn1ccc(=O)n2nc(-c3ccccc3)cc12
Mus musculus [5]
  Acute toxicity: 0
Mus musculus [6]
  Acute toxicity: 1
Mus musculus [7]
  Analgesic effect: 43%
Mus musculus [8]
  Analgesic effect: 53.3%
Mus musculus [9]
  Acute toxicity: 3
Mus musculus [10]
  Acute toxicity: 4
Mus musculus [11]
  Acute toxicity: 6
[12]
  LD50: 127 mg/kg
[13]
  selectivity ratio: 5.13
Mus musculus [14]
  Analgesic effect: 80.7%
Mus musculus [15]
  ED50: 69.6 mg/kg
Rattus norvegicus [16]
  ED50: 24.7 mg/kg
Rattus norvegicus [17]
  Reduction: 55.1%
Rattus norvegicus [18]
  Reduction: 67.5%
Rattus norvegicus [19]
  Reduction: 34.2%
Rattus norvegicus [20]
  Reduction: 29.8%
Rattus norvegicus [21]
  UI: 0.5
Mus musculus [4]
  Reduction: 54%

## CCn1c(=O)ccn2nc(-c3ccccc3)cc12
Mus musculus [22]
  Reduction: 32.2%
Rattus norvegicus [23]
  Reduction: 25.7%

## CCCCC1C(=O)N(c2ccccc2)N(c2ccccc2)C1=O [PHENYLBUTAZONE]
Mus musculus [1]
  Reduction: 52.9%
Mus musculus [24]
  Analgesic effect: 57.7%
Mus musculus [25]
  Analgesic effect: 73%
Mus musculus [26]
  Acute toxicity: 0
Mus musculus [27]
  Acute toxicity: 2
Mus musculus [28]
  Acute toxicity: 4
Mus musculus [29]
  Acute toxicity: 7
[12]
  LD50: 238 mg/kg
[13]
  selectivity ratio: 18.2
Rattus norvegicus [30]
  ED50: 274 mg/kg
Rattus norvegicus [16]
  ED50: 13.1 mg/kg
Rattus norvegicus [17]
  Reduction: 52.9%
Rattus norvegicus [31]
  Reduction: 62.9%
Rattus norvegicus [19]
  Reduction: 48.7%
Rattus norvegicus [32]
  Reduction: 20.7%
Rattus norvegicus [33]
  UD50: 72.4 mg/kg
Rattus norvegicus [34]
  UI: 2.55
Rattus norvegicus [35]
  UI: 1.35
Rattus norvegicus [36]
  UI: 3.2

## Oc1ccnc2cc(-c3ccccc3)nn12
Rattus norvegicus [37]
  Reduction: inactive
Mus musculus [38]
  Reduction: 27.3%

## CCn1ccc(=O)n2nc(C)cc12
Rattus norvegicus [3]
  Reduction: inactive
Mus musculus [4]
  Reduction: 7.3%

## COc1ccc2c(c1)c(CC(=O)O)c(C)n2C(=O)c1ccc(Cl)cc1 [INDOMETHACIN]
Mus musculus [39]
  Acute toxicity: 3
Mus musculus [40]
  Acute toxicity: 7
Mus musculus [41]
  Acute toxicity: 1
[12]
  LD50: 19.9 mg/kg
[13]
  selectivity ratio: 10.9
Rattus norvegicus [42]
  Analgesic effect: 28%
Rattus norvegicus [43]
  Analgesic effect: 28.4%
Rattus norvegicus [44]
  Analgesic effect: 57%
Mus musculus [15]
  ED50: 2.5 mg/kg
Rattus norvegicus [16]
  ED50: 1.83 mg/kg
Rattus norvegicus [45]
  Reduction: 69.2%
Rattus norvegicus [46]
  Reduction: 36.7%
Rattus norvegicus [47]
  Reduction: 39%
Rattus norvegicus [48]
  UD50: 12.1 mg/kg
Rattus norvegicus [49]
  UI: 2.36
Rattus norvegicus [35]
  UI: 3.3
Rattus norvegicus [50]
  UI: 1.4
Mus musculus [51]
  Reduction: 62.4%
Mus musculus [52]
  Acute toxicity: 2

## CCCCn1ccc(=O)n2nc(-c3ccccc3)cc12
Mus musculus [1]
  Reduction: 26.6%
Rattus norvegicus [32]
  Reduction: 59.8%

## CCn1ccc(=O)n2nc(-c3ccccc3)c(SSc3c(-c4ccccc4)nn4c(=O)ccn(CC)c34)c12
Rattus norvegicus [3]
  Reduction: inactive
Mus musculus [4]
  Reduction: 37.5%
